Results: patent publication US20210253575A1, “PYRROLIDINE AMINE COMPOUNDS FOR THE TREATMENT OF AUTOIMMUNE DISEASE” (Hoffmann-La Roche Inc., priority 2018, published 2021)

Biological target: T1, human TLR9 (Homo sapiens, UniProt Q9NR96)
T1 sequence (Q9NR96 26-1032): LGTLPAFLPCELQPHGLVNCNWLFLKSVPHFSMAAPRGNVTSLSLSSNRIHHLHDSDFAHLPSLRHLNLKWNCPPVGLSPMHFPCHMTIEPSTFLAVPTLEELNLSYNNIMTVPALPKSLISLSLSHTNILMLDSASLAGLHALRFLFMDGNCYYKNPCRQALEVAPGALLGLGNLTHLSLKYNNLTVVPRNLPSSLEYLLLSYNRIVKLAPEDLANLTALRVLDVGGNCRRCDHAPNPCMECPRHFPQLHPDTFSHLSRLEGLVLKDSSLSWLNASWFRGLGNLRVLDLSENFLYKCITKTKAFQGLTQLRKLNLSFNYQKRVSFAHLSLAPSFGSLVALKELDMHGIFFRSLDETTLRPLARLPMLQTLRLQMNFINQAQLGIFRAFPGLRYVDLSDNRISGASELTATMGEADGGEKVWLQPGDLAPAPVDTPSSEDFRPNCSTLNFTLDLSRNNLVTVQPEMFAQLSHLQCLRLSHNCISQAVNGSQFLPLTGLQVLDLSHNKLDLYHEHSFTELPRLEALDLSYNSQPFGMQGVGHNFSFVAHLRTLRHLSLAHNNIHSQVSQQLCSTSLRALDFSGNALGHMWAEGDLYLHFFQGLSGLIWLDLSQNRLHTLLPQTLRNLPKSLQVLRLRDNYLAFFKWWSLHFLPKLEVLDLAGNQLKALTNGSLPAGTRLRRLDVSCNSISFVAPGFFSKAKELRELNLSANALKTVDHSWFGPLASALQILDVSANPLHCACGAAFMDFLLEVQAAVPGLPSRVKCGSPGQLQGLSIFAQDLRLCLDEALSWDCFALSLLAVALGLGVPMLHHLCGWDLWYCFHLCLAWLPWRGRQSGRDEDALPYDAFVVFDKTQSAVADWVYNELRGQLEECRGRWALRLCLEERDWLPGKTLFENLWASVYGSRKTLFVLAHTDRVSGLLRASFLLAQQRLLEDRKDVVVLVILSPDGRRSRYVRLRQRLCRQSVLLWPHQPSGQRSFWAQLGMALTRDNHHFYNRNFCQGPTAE
Assay: HEK293-Blue-hTLR-9 cells assay (SEAP reporter, ODN2006 stimulation)
Assay type: cell-based
Settings: HEK293-Blue-hTLR9 cells, ODN2006 ligand, 20 hrs incubation
How it was run: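 HEK293-Blue-hTLR9 cells with NF-κB/AP-1-driven SEAP reporter, stimulated with ODN2006 in presence of serially diluted compounds (1% DMSO) for 20 h at 37 °C. Supernatant SEAP measured with QUANTI-Blue after 2 h at 37 °C, absorbance 620–655 nm.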

Question: With CC1(CN)CCCN(C[C@H]2CN(c3ccc(C#N)c4nccnc34)C[C@@H]2C(F)(F)F)C1 (stereo partly drawn) [Example 75, 8-[(3S,4R)-3-[[3-(aminomethyl)-3-methyl-1-piperidyl]methyl]-4-(trifluoromethyl)pyrrolidin-1-yl]quinoxaline-5-carbonitrile] as the compound, how does the IC50 read?
Answer: Its IC50 is 0.767 µM.

Question: How did the IC50 turn out when N#Cc1ccc(N2C[C@H](CN3CC4CNCC4C3)[C@@H](C(F)(F)F)C2)c2nccnc12 (stereo partly drawn) [Example 76, 8-[(3S,4R)-3-(2,3,3a,4,6,6a-hexahydro-1H-pyrrolo[3,4-c]pyrrol-5-ylmethyl)-4-(trifluoromethyl)pyrrolidin-1-yl]quinoxaline-5-carbonitrile] was run?
Answer: The IC50 was 0.485 µM.

Question: N#Cc1ccc(N2C[C@H](CN3CC4CCC3CN4)[C@@H](C(F)(F)F)C2)c2nccnc12 (stereo partly drawn) [Example 77, 8-[(3S,4R)-3-(2,5-diazabicyclo[2.2.2]octan-2-ylmethyl)-4-(trifluoromethyl)pyrrolidin-1-yl]quinoxaline-5-carbonitrile] was tested. Which IC50 did it give?
Answer: Its IC50 is 2.34 µM.

Question: N#Cc1ccc(N2C[C@H](CN3CCCC(F)(CN)C3)[C@@H](C(F)(F)F)C2)c2nccnc12 (stereo partly drawn) [Example 78, 8-[(3S,4R)-3-[[3-(aminomethyl)-3-fluoro-1-piperidyl]methyl]-4-(trifluoromethyl)pyrrolidin-1-yl]quinoxaline-5-carbonitrile] was tested. Which IC50 did it give?
Answer: Its IC50 is 1.92 µM.

Question: Which IC50 does the source give for N#Cc1ccc(N2C[C@H](CN3CCC(CCN)CC3)[C@@H](C(F)(F)F)C2)c2nccnc12 [Example 79, 8-[(3S,4R)-3-[[4-(2-aminoethyl)-1-piperidyl]methyl]-4-(trifluoromethyl)pyrrolidin-1-yl]quinoxaline-5-carbonitrile] here?
Answer: The IC50 was 0.248 µM.

Question: With CN(C)C1CCN(C[C@H]2CN(c3ccc(C#N)c4nccnc34)C[C@@H]2C(F)(F)F)CC1 [Example 80, 8-[(3S,4R)-3-[[4-(dimethylamino)-1-piperidyl]methyl]-4-(trifluoromethyl)pyrrolidin-1-yl]quinoxaline-5-carbonitrile] as the compound, how does the IC50 read?
Answer: Its IC50 is 0.706 µM.

Question: How did the IC50 turn out when CNCC1CCN(C[C@H]2CN(c3ccc(C#N)c4nccnc34)C[C@@H]2C(F)(F)F)CC1 [Example 81, 8-[(3S,4R)-3-[[4-(methylaminomethyl)-1-piperidyl]methyl]-4-(trifluoromethyl)pyrrolidin-1-yl]quinoxaline-5-carbonitrile] was run?
Answer: The IC50 was 0.218 µM.

Question: With CN(C)C[C@@H]1CCN(C[C@H]2CN(c3ccc(C#N)c4nccnc34)C[C@@H]2C(F)(F)F)C1 [Example 82, 8-[(3S,4R)-3-[[(3S)-3-[(dimethylamino)methyl]pyrrolidin-1-yl]methyl]-4-(trifluoromethyl)pyrrolidin-1-yl]quinoxaline-5-carbonitrile] as the compound, how does the IC50 read?
Answer: The IC50 was 0.304 µM.
